From the SangsterLogP compilation come the findings set out here.

One may read the logP as a log measure of how a compound divides between an organic and an aqueous phase.

Each structure is given as a SMILES string.

This data set can be described thus: method code SF-AS, from DOI: 10.1248/cpb.39.1736, PMID: 1777927.

Regarding `CCOc1ccc2cc(O)c(O)cc2c1`, the logP was 2.7.

On to `CCCCCCNC(=O)C=Cc1ccc(O)c(O)c1`, for which the logP amounted to 3.37. Turning to `CCCCc1ccc(O)c(O)c1`, the logP came to 2.96. On to `CCc1ccc2cc(O)c(O)cc2c1`, for which the logP was 3.25. Regarding `O=C(/C=C/c1ccc(O)c(O)c1)NCCc1ccccc1`, the logP came out at 2.72. `CCCCCC(O)c1ccc(O)c(O)c1` (stereo not drawn): the log partition coefficient (logP) came out at 2.32. As to `CCCCCCNC(=O)c1ccc(O)c(O)c1`, the logP was determined as 2.71. The compound `CCCCOC(=O)/C=C/c1ccc(O)c(O)c1` had a logP of 3.53. For the compound `COc1ccc(CNC(=O)C=Cc2ccc(O)c(O)c2)cc1OC`, the logP turned out to be 1.99. As for `COc1ccc(CCNC(=O)/C=C/c2ccc(O)c(O)c2)cc1OC`, the logP was 2.07. As to `CCCCCCNC(=O)/C=C/Oc1ccc(O)c(O)c1`, the logP worked out at 3.36. The compound `CCCCC=Cc1ccc(O)c(O)c1` yielded a log partition coefficient (logP) of 3.82.

In turn, `COc1ccc(NC(=O)/C=C/c2ccc(O)c(O)c2)cc1OC` displayed a log partition coefficient (logP) of 2.3. In turn, `O=C(/C=C/c1ccc(O)c(O)c1)CCCCCO` gave a logP of 1.67. In the case of `CCCCNC(=O)c1ccc2cc(O)c(O)cc2c1`, the logP was 2.72. With `CCCC(=O)C=Cc1ccc(O)c(O)c1`, the logP came out at 2.61. For the compound `O=C(/C=C/c1ccc(O)c(O)c1)NCc1ccccc1`, the logP was found to be 2.48. For the compound `CC(=O)c1ccc2cc(O)c(O)cc2c1`, the lipophilicity (logP) came to 2.32.
